Measurements: article PMC10671074, “Tumor Regression upon Intratumoral and Subcutaneous Dosing of the STING Agonist ALG-031048 in Mouse Efficacy Models” (International Journal of Molecular Sciences, 2023)
Where “and” joins values, the source holds several entries; their conditions need not be identical. Identical values can stand only once.

Legend:
[1] = Plasma stability, human; type: in vitro ADME; conditions: 37 °C, read-out: Plasma t½, Human
Protocol: The plasma stability assay was carried out on 96-well microtiter plates. The test compounds at 5 µM and the reference compound (propantheline) at 1 µM final concentration were incubated separately at 37 °C with mouse or human plasma for 0, 30, 60, and 240 min. At the end of each incubation time point, 300 μL of the quenching solution (50% acetonitrile, 50% methanol, and 0.05% formic acid) containing the internal standard was added to each well. The incubation plates were sealed, vortexed, and centrifuged at 4 °C for 15 min at 4000 rpm. The supernatant was transferred to fresh plates for LC/MS/MS analysis of the test compounds. The peak area ratios of each test compound over the internal standard were plotted against incubation time, and the t½ was calculated from the curve assuming first-order kinetics.

[2] = Liver microsomal stability, human; type: in vitro ADME; conditions: pH 7.4, 0.5 mg/mL human liver microsomes, 37 °C, read-out: Liver Microsome t½, Human
Protocol: The liver microsomal stability assay was carried out in 96-well microtiter plates. The test compounds at 5 µM and the reference compound (verapamil) at 1 µM final concentration were incubated separately at 37 °C with 0.5 mg/mL liver microsomes, with or without 1 mM NADPH in 100 mM potassium phosphate buffer, pH 7.4 with 3.3 mM MgCl2. […] At each of the time points (0, 15, 30, and 60 min), the enzymatic reaction was terminated with the addition of 150 μL of quenching solution (100% acetonitrile, 0.1% formic acid, and the internal standard), and subsequently the mixtures were vortexed vigorously for 20 min and centrifuged at 4000 rpm at 10 °C. The supernatants (80 µL) were transferred to a clean 96-well plate and analyzed via LC/MS/MS. The peak area ratios of each test compound over the internal standard were plotted against incubation time, and the t½ was calculated from the curve assuming first-order kinetics.

[3] = target: STING R232 (Homo sapiens, UniProt Q86WV6, H232R); test: Thermal shift binding assay (differential scanning fluorimetry)
Protocol: Each sample was prepared in a total volume of 40 μL that contained a 5× final concentration of SYPRO orange (Invitrogen, Carlsbad, CA, USA) in buffer (20 mM of HEPES pH 7.5, 150 mM of NaCl, 1 mM of DTT, and 1 mM of MgCl2) and 4 μM of STING C-terminal domain protein with and without a test article. […] The resulting fluorescence intensity from the raw dissociation curve data were used to determine the melting temperature for STING protein alone or with a compound. Melting temperature from protein alone was then subtracted from all melting temperatures of protein in the presence of compound, and a resulting melting temperature vs. compound concentration provided apparent Kd values as generated using a sigmoidal dose–response (variable slope) equation in GraphPadPrism version 8.0 (GraphPad Software, Boston, MA, USA).

[4] = system: THP-1 cells (STING isoform HAQ); test: THP-1 cytokine (IP-10) release assay; type: cell-based, human; conditions: overnight incubation, THP-1 (STING HAQ)
Protocol: THP-1 cells (American Type Culture Collection, Manassas, VA, USA) were maintained in maintenance media consisting of RPMI-1640, 1% Pen-Strep, 1% NEAA, 1% Glutagro™, 1% HEPES (all Corning), and 10% FBS (Sigma-Aldrich). On the day of dosing, cells were pelleted and resuspended in fresh media to a density of 1.6 × 10^6 cells/mL. An aliquot of […] was added to each well of a 96-well U-bottom plate for a total of 1.0 × 10^5 cells per well, and the final volume was adjusted to 150 µL using fresh media. Compound dilutions were prepared in maintenance media, and 50 µL of diluted compound were added to wells in duplicate. Cells were incubated with the compound overnight at 37 °C. The next day, plates were centrifuged, and the supernatant was collected in a 96-well flat-bottom plate. Human IP-10 was detected using the ProQuantum Immunoassay kit (Thermo Fisher Scientific, Waltham, MA, USA). Data were analyzed using a standard curve and reported as fold-increase over background. Graphs were generated using GraphPad™ Prism version 8.0.

[5] = system: MC38-hPD-L1 tumors; test: MC38-hPD-L1 mouse colon carcinoma model; type: in vivo; conditions: 0.5 mg/kg SC, QW (2×)
Excerpt: Female C57/BL6 mice (Shanghai Lingchang Biotechnology Co., Ltd., Shanghai, China) were 5 to 8 weeks old with a body weight > 16 g at the time of inoculation. Animals were housed and fed as described above.
After inoculation with tumor cells, the animals were checked daily for morbidity and mortality. During routine monitoring, the animals were checked for any effects of tumor growth or test articles on behavior such as mobility, food and water consumption, body weight gain/loss (body weights were measured twice per week after randomization), eye/hair matting, and any other abnormalities. Tumor volumes were measured and calculated as described above.
Each group consisted of 10 animals. The control group was administered 5 mg/kg isotype control antibody in a volume of 10 μL/g of IP, BIW for 2.5 weeks, 5 doses total. The atezolizumab-treated group was administered 5 mg/kg in a volume of 10 μL/g of IP, BIW for 2.5 weeks, 5 doses total. […] Dosing started when average tumor volumes were 70 mm^3.

Chain of STING R232 (Q86WV6 139-379 H232R): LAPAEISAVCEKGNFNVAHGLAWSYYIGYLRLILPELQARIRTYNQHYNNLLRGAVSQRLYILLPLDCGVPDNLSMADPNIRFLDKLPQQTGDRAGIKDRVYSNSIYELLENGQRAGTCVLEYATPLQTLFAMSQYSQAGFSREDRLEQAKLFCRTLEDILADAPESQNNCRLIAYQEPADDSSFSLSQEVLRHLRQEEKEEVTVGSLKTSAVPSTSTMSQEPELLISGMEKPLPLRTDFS

## CO[C@H]1[C@H]2OP(=O)(O)OC[C@@]34C[C@@H]3[C@@H](n3cnc5c(N)ncnc53)[C@H](O)[C@@H]4O[P@](=O)(S)OC[C@H]1O[C@H]2n1cnc2c(=O)[nH]c(N)nc21 [ALG-031048]
[1]
  half-life at 5 µM: > 1 h
[2]
  half-life at 5 µM: > 8 h
[3]
  Kd: 2.71 µM
[3]; STING R232 thermal shift assay, mean±standard deviation
  Maximum temperature shift: 13.8 °C and 13.8±2.98 °C
[4]
  Release of IP-10 in THP-1 cells: dose-dependent release of IP-10
[5]; Day 11
  Tumor Reduction vs. Group 1 (vehicle): 40.3%
[5]; n = 10, vehicle 2268
  TV on Day 11 (Median): 1353 mm^3
